Results published in patent US10851069B2, “Compositions of crystallized hydrophobic compounds and methods of making and using same” (Massachusetts Institute of Technology, priority 2016, dated 2020).

Legend:
[1] = Drug extraction (HPLC) of retrieved capsules, remaining loaded drug; assay type: in vivo, C57BL/6 mice; settings: crystalline, co-encapsulated with islets, after 460 days compared to 6 months (180 days)
Protocol: Calibration curves were obtained on an Agilent LC 1100 Series (Agilent Technologies, CA, USA) equipped with binary pump ([…] Å), auto-sampler (G1313 Å), degasser and photodiode detector (DAD, […] Å). Chemstation was used for system control, data processing and data acquisition for LC. Chromatographic separation was achieved by an analytical Waters Atlantis T3 C18 column (5 μm, 4.6×250 mm). The temperature of column and auto-sampler were kept at 20° C. Stock solution of GW2580 was prepared in dimethyl sulfoxide (DMSO) at a target concentration of 10 mg/ml and appropriate dilutions were made in DMSO to prepare standards (0.25-2500 μg/ml) for calibration curve of GW2580. 10 μl of standard solution was injected and the analytes were eluted by gradient mode using (A) acetonitrile and (B) 0.1% formic acid in water at a constant flow rate of 1 ml/min. The gradient conditions of mobile phase were as follows: 0 min 10% A, 10 min 95% A, 14 min 95% A, 16 min 10% A, 20 min 10% A. Stock solution of curcumin was prepared in dimethyl sulfoxide (DMSO) at a target concentration of 10 mg/ml and appropriate dilutions were made in DMSO to prepare standards (0.05-500 μg/ml) for calibration curve of curcumin. 10 μl of standard solution was injected and the analytes were eluted by gradient mode using (A) acetonitrile and (B) 0.1% formic acid in water at a constant flow rate of 1 ml/min. […]

[2] = Drug levels in retrieved capsules, IP lavage and plasma in non-human primates (HPLC, LCMS); assay type: in vivo, cynomolgus macaques
Protocol: LC pumps used are Agilent 1290 Infinity Binary pumps with CTC Pal Autosampler. MS is a Sciex API6500 triple quad. Sample Storage Conditions: −80° C. Sample Processing Extraction Volume: 10 μL. Extraction Method: Protein Precipitation. For example: GW2580 plasma concentration analysis: Sample Extraction Procedure: 1. 10 μL of calibration standards, quality controls, blanks and samples were aliquoted into a 96-well plate. 2. 60 μL of IS-SS (internal standard) (100 ng/mL QNZ, carbutamide, chrysin, carbamazepine, glafenine, dexamethasone, glyburide, and d4AEA in acetonitrile) were added to all samples except for double blanks. 60 μL of acetonitrile was then added to double blanks. 3. The plate was covered and samples mixed, followed by centrifugation for 5 minutes at 3000 rpm at 4° C. 4. 50 μL of supernatant was then transferred into a clean 96-well plate using a liquid handler. 5. Samples were diluted with 100 μL of MilliQ water, and the plate was once again covered and mixed for about a minute prior to sample injection onto the LC-MS/MS at 1.00-2,500 ng/mL. LC Conditions: Waters BEH C18, 50×2.1 mm, 1.7 μm. Run temperature: 50° C. Mobile Phase A, 95:5:0.1 (v:v:v) Water:Acetonitrile:Formic Acid (1.2 min). Mobile Phase B, 50:50:0.1 (v:v:v) Methanol:Acetonitrile:Formic Acid (1.3 min). Flow: 0.8 mL/min. Injection Volume: 2 μL. MS Conditions: MS/MS: API-6500. Ionization Method: Electrospray. Positive/Negative Ion: Positive. Resolution: Unit. Source Temperature (° C.): 550. Transitions (m/z): Compound ID: GW2580 367.0/245.1 Da. Int Std ID: QNZ 357.0/197.1 Da. Data Analysis: Acceptance Criteria ‘±20% (±25% at the LLOQ), Regression Type, Linear (1/(x*x)), Accepted Curve Range 1.00-2,500 ng/mL Carryover 0.00%. HPLC
Calibration curves were obtained on an Agilent LC 1100 Series (Agilent Technologies, CA, USA) equipped with binary pump (G1312 Å), auto-sampler (G1313 Å), degasser and photodiode detector (DAD, G1315 Å). Chemstation was used for system control, data processing and data acquisition for LC. Chromatographic separation was achieved by an analytical Waters Atlantis T3 C18 column (5 μm, 4.6×250 mm). The temperature of column and auto-sampler were kept at 20° C.
Stock solution of GW2580 was prepared in dimethyl sulfoxide (DMSO) at a target concentration of 10 mg/ml and appropriate dilutions were made in DMSO to prepare standards (0.25-2500 μg/ml) for calibration curve of GW2580. 10 μl of standard solution was injected and the analytes were eluted by gradient mode using (A) acetonitrile and (B) 0.1% formic acid in water at a constant flow rate of 1 ml/min. The gradient conditions of mobile phase were as follows: 0 min 10% A, 10 min 95% A, 14 min 95% A, 16 min 10% A, 20 min 10% A.

SMILES: COc1ccc(COc2ccc(Cc3cnc(N)nc3N)cc2OC)cc1 [GW2580, 5-[[3-Methoxy-4-[(4-methoxyphenyl)methoxy]phenyl]methyl]-2,4-pyrimidinediamine]
- drug remaining in retrieved capsules [1]: significantly larger amount
- remaining drug extracted from retrieved capsules ([2]; 0.5 mm capsules, IP space, 3 months): little to no drug
- remaining drug extracted from retrieved capsules ([2]; 1.5 mm capsules, IP and SC sites, up to 6 months): additional stores
- plasma drug concentration ([2]; at the termination of the study): below detection limits
- IP space (lavage) drug concentration ([2]; beyond 4 weeks, below detectable limit): < 0.5 ng/mL
- concentration at 4 weeks ([2]; cynomolgus monkey, intraperitoneal space lavage fluid, ip, 4 weeks post-implantation): 2 to 3 ng/mL
